Usually IC50 stands for the concentration at which inhibition is half-maximal.

One experiment addresses T1, ZAP-70 (Homo sapiens, UniProt P43403).
T1 construct: endogenous in cells
T1 sequence (P43403 1-619): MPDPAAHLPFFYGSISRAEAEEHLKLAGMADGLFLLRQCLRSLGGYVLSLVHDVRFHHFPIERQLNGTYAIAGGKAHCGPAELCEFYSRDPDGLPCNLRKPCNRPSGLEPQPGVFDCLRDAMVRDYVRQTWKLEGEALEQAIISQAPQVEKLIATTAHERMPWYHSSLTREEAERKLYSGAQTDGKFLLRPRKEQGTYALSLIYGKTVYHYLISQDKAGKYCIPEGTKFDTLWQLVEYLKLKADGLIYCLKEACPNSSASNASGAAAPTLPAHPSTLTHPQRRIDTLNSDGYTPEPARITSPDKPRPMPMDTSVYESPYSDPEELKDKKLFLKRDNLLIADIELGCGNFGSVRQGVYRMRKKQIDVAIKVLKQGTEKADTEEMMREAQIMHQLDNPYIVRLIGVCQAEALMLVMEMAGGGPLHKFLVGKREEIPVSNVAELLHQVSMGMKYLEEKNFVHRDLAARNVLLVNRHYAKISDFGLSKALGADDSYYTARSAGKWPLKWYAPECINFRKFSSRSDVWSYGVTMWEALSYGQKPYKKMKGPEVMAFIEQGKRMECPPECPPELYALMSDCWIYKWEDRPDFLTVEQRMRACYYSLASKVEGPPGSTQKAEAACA
The experiment is described as follows: ZAP-70 kinobeads assay. It counts as binding. The note with it: cell lysate, dot blot with ZAP-70 antibody. The protocol: (§1) The compounds of the present invention as described in the previous examples were tested in the ZAP-70 kinobeads assay as described (EP-A 1862802 and WO-A 2007/137867). Briefly, test compounds (at various concentrations) and the affinity matrix with the immobilized aminopyrido-pyrimidine ligand 24 are added to cell lysate aliquots and allowed to bind to the proteins in the lysate sample. After the incubation time the beads with captured proteins are separated from the lysate. Bound proteins are then eluted and the presence ZAP-70 is detected and quantified using a specific antibody in a dot blot procedure and the Odyssey infrared detection system.

The next experiment deals with T2, JAK3 (Homo sapiens, UniProt P52333).
T2 construct: endogenous in cells
T2 sequence (P52333 1-1124): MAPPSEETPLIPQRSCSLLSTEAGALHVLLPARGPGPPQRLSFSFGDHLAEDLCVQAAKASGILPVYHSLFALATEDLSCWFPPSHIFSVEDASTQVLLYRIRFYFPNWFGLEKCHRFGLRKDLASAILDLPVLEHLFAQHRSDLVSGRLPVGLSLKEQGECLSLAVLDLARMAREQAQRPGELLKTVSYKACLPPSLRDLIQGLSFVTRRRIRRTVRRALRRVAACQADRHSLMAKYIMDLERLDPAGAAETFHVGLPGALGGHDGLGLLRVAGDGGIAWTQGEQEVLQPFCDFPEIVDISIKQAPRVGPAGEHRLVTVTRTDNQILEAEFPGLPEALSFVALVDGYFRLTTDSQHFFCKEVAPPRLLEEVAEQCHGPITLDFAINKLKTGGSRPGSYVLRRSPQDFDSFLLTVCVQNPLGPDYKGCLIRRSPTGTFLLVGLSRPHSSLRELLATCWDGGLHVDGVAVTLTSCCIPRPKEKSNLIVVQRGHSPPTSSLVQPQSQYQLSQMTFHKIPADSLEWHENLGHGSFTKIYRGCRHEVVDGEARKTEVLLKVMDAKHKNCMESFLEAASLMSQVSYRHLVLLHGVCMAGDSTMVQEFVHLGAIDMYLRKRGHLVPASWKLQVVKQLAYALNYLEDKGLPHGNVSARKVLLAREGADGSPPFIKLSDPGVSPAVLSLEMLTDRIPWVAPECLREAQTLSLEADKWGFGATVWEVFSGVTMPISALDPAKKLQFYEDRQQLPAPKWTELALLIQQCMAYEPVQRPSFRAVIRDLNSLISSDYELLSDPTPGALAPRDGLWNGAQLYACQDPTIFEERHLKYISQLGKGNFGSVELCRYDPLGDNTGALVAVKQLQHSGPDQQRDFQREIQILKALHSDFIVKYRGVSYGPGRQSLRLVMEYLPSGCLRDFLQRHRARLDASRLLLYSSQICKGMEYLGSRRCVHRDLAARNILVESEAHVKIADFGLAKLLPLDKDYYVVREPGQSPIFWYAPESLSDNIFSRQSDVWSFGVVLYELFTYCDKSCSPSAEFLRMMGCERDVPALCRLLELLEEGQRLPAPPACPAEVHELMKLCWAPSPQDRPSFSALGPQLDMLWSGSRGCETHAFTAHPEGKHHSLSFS
As to the kind of experiment: JAK3 kinobeads assay. It counts as binding. The note with it: cell lysate, dot blot with JAK3 specific antibody. The protocol:
as §1
Compounds were tested by the procedure described in Example 102 but using a JAK3 specific antibody (Cell Signaling Technology, Inc., Danvers, US, catalogue number 3775) instead of a ZAP70 antibody.

SMILES strings stand for the structures. Some results are limits rather than exact numbers.

For the compound `COc1ccc(Nc2nc(Nc3cnn(C)c3)ncc2F)c(NS(C)(=O)=O)c1` [Example 21, N-(2-(5-fluoro-2-(1-methyl-1H-pyrazol-4-ylamino)pyrimidin-4-ylamino)-5-methoxyphenyl)methanesulfonamide], the values for the IC50 on ZAP-70 and on JAK3 were 100 to 1000 nM and no more than 100 nM, respectively. For the compound `Cc1nn(C)cc1Nc1ncc(Cl)c(Nc2ccccc2NS(C)(=O)=O)n1` [Example 35, N-(2-(5-chloro-2-(1,3-dimethyl-1H-pyrazol-4-ylamino)pyrimidin-4-ylamino)phenyl)methanesulfonamide], the IC50 on ZAP-70 and on JAK3 was no more than 100 nM each time. On to `Cc1nn(C)cc1Nc1ncc(F)c(Nc2ccccc2NS(C)(=O)=O)n1` [Example 30, N-(2-(2-(1,3-dimethyl-1H-pyrazol-4-ylamino)-5-fluoropyrimidin-4-ylamino)phenyl)methanesulfonamide], for which the IC50 against ZAP-70 and on JAK3 was 100 to 1000 nM in each case. `COc1ccc(Nc2nc(Nc3cn(C)nc3C)ncc2F)c(NS(C)(=O)=O)c1` [Example 32, N-(2-(2-(1,3-dimethyl-M-pyrazol-4-ylamino)-5-fluoropyrimidin-4-ylamino)-5-methoxyphenyl)methanesulfonamide]: the IC50 at ZAP-70 and against JAK3 was 100 to 1000 nM each time. `COc1ccc(Nc2nc(Nc3cc(C(C)C)nn3C)ncc2Cl)c(NS(C)(=O)=O)c1` [Example 11, N-(2-(5-chloro-2-(3-isopropyl-1-methyl-1H-pyrazol-5-ylamino)pyrimidin-4-ylamino)-5-methoxyphenyl)methanesulfonamide]: the half-maximal inhibitory concentration (IC50) at ZAP-70 and at JAK3 was 100 to 1000 nM in each case. In the case of `Cn1cc(Nc2ncc(F)c(Nc3ccccc3NS(C)(=O)=O)n2)cn1` [Example 22, N-(2-(5-fluoro-2-(1-methyl-1H-pyrazol-4-ylamino)pyrimidin-4-ylamino)phenyl)methanesulfonamide], the concentration for half-maximal inhibition (IC50) at ZAP-70 was 100 to 1000 nM; on JAK3 it was no more than 100 nM. Regarding `COc1ccc(Nc2nc(Nc3cn[nH]c3)ncc2F)c(NS(C)(=O)=O)c1` [Example 24, N-(2-(2-(1H-pyrazol-4-ylamino)-5-fluoropyrimidin-4-ylamino)-5-methoxyphenyl)methanesulfonamide], the half-inhibitory concentration (IC50) is 100 to 1000 nM on ZAP-70 and no more than 100 nM at JAK3.

Take `CS(=O)(=O)Nc1ccccc1Nc1nc(Nc2cn[nH]c2)ncc1F` [Example 23, N-(2-(2-(1H-pyrazol-4-ylamino)-5-fluoropyrimidin-4-ylamino)phenyl)methanesulfonamide]: the half-inhibitory concentration (IC50) against ZAP-70 is 100 to 1000 nM; on JAK3, no more than 100 nM.

`CCn1cc(Nc2ncc(F)c(Nc3ccc(OC)cc3NS(C)(=O)=O)n2)c(C)n1` [Example 34, N-(2-(2-(1-ethyl-3-methyl-1H-pyrazol-4-ylamino)-5-fluoropyrimidin-4-ylamino)-5-methoxyphenyl)methanesulfonamide]: the half-inhibitory concentration (IC50) on ZAP-70 and on JAK3 was 100 to 1000 nM each time. Consider `CCn1ncc(Nc2ncc(Cl)c(Nc3ccc(OC)cc3NS(C)(=O)=O)n2)c1C` [Example 77, N-(2-((5-chloro-2-((1-ethyl-5-methyl-1H-pyrazol-4-yl)amino)pyrimidin-4-yl)amino)-5-methoxyphenyl)methanesulfonamide], for which the IC50 at ZAP-70 was no more than 100 nM; at JAK3, 100 to 1000 nM. As to `COc1ccc(Nc2nc(Nc3cnn(C)c3C)ncc2Cl)c(NS(C)(=O)=O)c1` [Example 67, N-(2-((5-chloro-2-((1,5-dimethyl-1H-pyrazol-4-yl)amino)pyrimidin-4-yl)amino)-5-methoxyphenyl)methanesulfonamide], the half-maximal inhibitory concentration (IC50) at ZAP-70 is no more than 100 nM; at JAK3, 100 to 1000 nM. As to `CCn1ccc(Nc2ncc(Cl)c(Nc3ccccc3NS(C)(=O)=O)n2)n1` [Example 42, N-(2-(5-chloro-2-(1-ethyl-1H-pyrazol-3-ylamino)pyrimidin-4-ylamino)phenyl)methanesulfonamide], the half-inhibitory concentration (IC50) is 100 to 1000 nM on ZAP-70 and no more than 100 nM on JAK3.

As to `COc1ccc(Nc2nc(Nc3cc(C)nn3C(C)C3CC3)ncc2Cl)c(NS(C)(=O)=O)c1` (stereo not shown) [Example 88, N-(2-((5-chloro-2-((1-(1-cyclopropylethyl)-3-methyl-1H-pyrazol-5-yl)amino)pyrimidin-4-yl)amino)-5-methoxyphenyl)methanesulfonamide], the IC50 against ZAP-70 lay within 1000 to 10000 nM. On to `CCn1nc(C)cc1Nc1ncc(Cl)c(Nc2ccc(OC)cc2NS(C)(=O)=O)n1` [Example 12, N-(2-(5-chloro-2-(1-ethyl-3-methyl-1H-pyrazol-5-ylamino)pyrimidin-4-ylamino)-5-methoxyphenyl)methanesulfonamide], for which the IC50 on ZAP-70 is no more than 100 nM; against JAK3, 100 to 1000 nM. Take `COc1ccc(Nc2nc(Nc3c(C)cnn3C)ncc2Cl)c(NS(C)(=O)=O)c1` [Example 14, N-(2-(5-chloro-2-(1,4-dimethyl-1H-pyrazol-5-ylamino)pyrimidin-4-ylamino)-5-methoxyphenyl)methanesulfonamide]: the IC50 against ZAP-70 was 1000 to 10000 nM. Still for that read-out and setting: the value for `CCn1ncc(C)c1Nc1ncc(Cl)c(Nc2ccc(OC)cc2NS(C)(=O)=O)n1` [Example 26, N-(2-(5-chloro-2-(1-ethyl-4-methyl-1H-pyrazol-5-ylamino)pyrimidin-4-ylamino)-5-methoxyphenyl)methanesulfonamide] was 1000 to 10000 nM.

In turn, `COc1ccc(Nc2nc(Nc3c(C)noc3C)ncc2Cl)c(NS(C)(=O)=O)c1` [Example 19, N-(2-(5-chloro-2-(3,5-dimethylisoxazol-4-ylamino)pyrimidin-4-ylamino)-5-methoxyphenyl)methanesulfonamide] came in with a concentration for half-maximal inhibition (IC50) at ZAP-70 of 1000 to 10000 nM. The same measure, in the same setting: to `CCC(C)n1nc(C)cc1Nc1ncc(Cl)c(Nc2ccc(OC)cc2NS(C)(=O)=O)n1` (stereo not shown) [Example 27, N-(2-(2-(1-sec-butyl-3-methyl-1H-pyrazol-5-ylamino)-5-chloropyrimidin-4-ylamino)-5-methoxyphenyl)methanesulfonamide] belongs 100 to 1000 nM; to `CCCCn1nc(C)cc1Nc1ncc(Cl)c(Nc2ccc(OC)cc2NS(C)(=O)=O)n1` [Example 86, N-(2-((2-((1-butyl-3-methyl-1H-pyrazol-5-yl)amino)-5-chloropyrimidin-4-yl)amino)-5-methoxyphenyl)methanesulfonamide], no more than 100 nM; to `CCc1nn(C)c(Nc2ncc(Cl)c(Nc3ccc(OC)cc3NS(C)(=O)=O)n2)c1C` [Example 15, N-(2-(5-chloro-2-(3-ethyl-1,4-dimethyl-1H-pyrazol-5-ylamino)pyrimidin-4-ylamino)-5-methoxyphenyl)methanesulfonamide], 1000 to 10000 nM. The compound `COc1ccc(Nc2nc(Nc3ccnn3CC3CC3)ncc2Cl)c(NS(C)(=O)=O)c1` [Example 60, N-(2-((5-chloro-2-((1-(cyclopropylmethyl)-1H-pyrazol-5-yl)amino)pyrimidin-4-yl)amino)-5-methoxyphenyl)methanesulfonamide] gave a concentration for half-maximal inhibition (IC50) on ZAP-70 of 100 to 1000 nM.

(Values after patent US20120172384A1, “HETEROCYCLYLAMINOPYRIMIDINES AS KINASE INHIBITORS” (priority 2009, published 2012).)
